Source: patent publication US5840859A, “(Aminostyryl)pyridinium compounds for radiolabelling cell membranes” (Research Corporation Technologies, Inc., priority 1996, dated 1998)

How the values were obtained:
[1] = system: rat splenic lymphocytes; assay: Lymphocyte labeling yield, rat splenic lymphocytes; format: cell-based
Experimental: (§1) Peripheral blood lymphocytes (PBLs) from dogs and rats as well as rat splenic lymphocytes were labeled in high yields with either 4a or 4b (Table 2). Viability of labeled lymphocytes was >90% both before and after radiolabeling (Trypan Blue exclusion test).
A 400 g Sprague-Dawley rat was sacrificed to remove the spleen (1.133 g). The spleen was perfused with phosphate buffered saline to remove the lymphocytes. The lymphocytes in 10 mL PBS were split into two equal portions and each portion was layered onto 5 mL of Lympholyte-Rat (Cedar Lane Laboratories Limited, Ontario, Canada) in a separate 15 mL centrifuge tube. The tubes were centrifuged at 2700 rpm for 20 minutes at room temperature. The lymphoctyes appeared as a layer at the interface of the saline and Lympholyte-Rat layers. The saline layer was removed and discarded. The lymphocyte containing layer from each tube was removed and transferred to a single 50 mL Falcon tube. To this tube was added 10 mL saline and the tube centrifuged for 7 minutes at 1600 rpm. The supernatant was removed, the cells resuspended in 10 mL saline, and centrifuged at 1600 rpm for 7 minutes. The supernatant was removed and the cells suspended in 1 mL saline. […] […] To these cells was added 20 ul of an ethanolic solution of 3-[4-[2-(N,N-dihexylamino)phenyl]ethyenyl]pyridino-E-1-[^125 I]-iodo-propene (15.6 uCi) dissolved in 500 ul of saline. The cells were place vertically on a Nutator rocking apparatus and rocked gently for 20 minutes at room temperature. The cells were then underlayered with 7.5 mL of saline and centrifuged at 1600 rpm for seven minutes to pellet the cells. The supernatant was removed, the cells resuspended in 10 mL saline, and transferred to a new tube. The supernatant, cells, and labeling tube were counted for radioactivity. The cells were centrifuged again at 1600 rpm for 7 minutes, the supernatant removed, and the cells resuspended. After the second centrifugation, 11.9uCi (77%) of ^131 I was bound to the lymphocytes. After labeling, 12% of the cells were dead by the trypan blue exclusion test.

[2] = system: mixed leukocytes; assay: Mixed leukocyte labeling yield; format: cell-based, canine; conditions: for Mixed leukocyte labeling yield: 125I labeled, average, 10-30 μCi, 250-325 Ci/mmol
Experimental: Labeling of mixed leukocytes (harvested from 20 mL canine blood) with 4a-d was performed using five different procedures: 1) labeling in Diluent C (a commercial non-ionic cell labeling media developed by Zynaxis Co. that is not approved for human use) after two saline washes of the cell pellet; 2) labeling in saline after two saline washes of the cell pellet; 3) labeling in saline with no saline washes of the cell pellet; 4 and 5) labeling in ether 10% or 100% platelet poor plasma (PPP).
Unwashed mixed leukocytes in 1.5 mL 10% PPP in saline were also tested. […]
This was evaporated to dryness under vacuum in a speed vac and reconstituted into 30 ul ethanol. Forty milliliters of canine blood was drawn into a 60 mL syringe containing 6.5 mL acetate-citrate-dextrose solution. To this was added 5.5 mL 2% methyl cellulose in saline. The contents of the syringe were gently mixed by several inversions of the syringe and the syringe placed vertically, needle end up, for 45 minutes to allow the red blood cells to settle. The plasma was drawn off and placed into a 50 mL Falcon tube. The tube was centrifuged at 1100 rpm for 15 minutes to pellet the leukocytes. The plasma was removed and the cells resuspended in 2 mL saline. In a 1 mL plastic microcentrifuge was placed 0.5 mL saline. […] The cells were then underlayered with 7.5 mL of platelet poor plasma and centrifuged at 1600 rpm for seven minutes to pellet the cells. The supernatant was removed, the cells resuspended in 10 mL saline, and transferred to a new tube. The supernatant, cells, and labeling tube were counted for radioactivity. The cells were centrifuged again at 1600 rpm for 7 minutes, the supernatant removed, and the cells resuspended.
A sample of canine blood (20 mL) was drawn into a 60 mL syringe containing 3 mL acetate-citrate-dextrose (ACD) solution. To this was added 3 mL 2% methyl cellulose in saline. The contents of the syringe were gently mixed by several inversions, and the syringe was then placed vertically, needle end up, for 45 min to allow the red blood cells to settle. The plasma was drawn off and transferred to a 50 mL Falcon tube. The tube was centrifuged at 1100 rpm for 15 min to pellet the leukocytes. The plasma was removed and the cells resuspended in 10 mL saline. The tube was centrifuged at 1600 rpm for 7 min, the supernatant removed, and the cells resuspended in 10 mL saline and recentrifuged at 1600 rpm for 7 min. The supernatant was then removed and the cells resuspended in 2 mL Diluent C. Into a 1 mL plastic microcentrifuge tube was placed 0.5 mL Diluent C. […] The indium complex in Diluent C was immediately added to the leukocytes and the cells were placed vertically on a Nutator rocking apparatus and rocked gently for 30 min at room temperature. The cells were then underlayered with 5 mL of platelet poor plasma and centrifuged at 1600 rpm for 7 min to pellet the cells. The supernatant was removed, the cells resuspended in 10 mL saline, and transferred to a new tube. The supernatant, cells, and labeling tube were counted for radioactivity. The cells were centrifuged again at 1600 rpm for 7 min, the supernatant removed, and the cells resuspended.

[3] = Viability of labeled lymphocytes (Trypan Blue exclusion test); format: cell-based, dog and rat; conditions: before and after radiolabeling
Excerpt: as §1

[4] = Rat splenic lymphocyte survival after labeling (Trypan blue exclusion test); format: cell-based; conditions: rat, splenic lymphocytes; Example 11, trypan blue; 12% dead before labeling; read-out: dead cells after labeling
Experimental: (§2) A 400 g Sprague-Dawley rat was sacrificed to remove the spleen (1.133 g). The spleen was perfused with phosphate buffered saline to remove the lymphocytes. The lymphocytes in 10 mL PBS were split into two equal portions and each portion was layered onto 5 mL of Lympholyte-Rat (Cedar Lane Laboratories Limited, Ontario, Canada) in a separate 15 mL centrifuge tube. The tubes were centrifuged at 2700 rpm for 20 minutes at room temperature. The lymphoctyes appeared as a layer at the interface of the saline and Lympholyte-Rat layers. The saline layer was removed and discarded. The lymphocyte containing layer from each tube was removed and transferred to a single 50 mL Falcon tube. To this tube was added 10 mL saline and the tube centrifuged for 7 minutes at 1600 rpm. The supernatant was removed, the cells resuspended in 10 mL saline, and centrifuged at 1600 rpm for 7 minutes. The supernatant was removed and the cells suspended in 1 mL saline. Using a hemocytometer, a total of 5 million lymphocytes were counted. […] To these cells was added 20 ul of an ethanolic solution of 3-[4-[2-(N,N-dihexylamino)phenyl]ethyenyl]pyridino-E-1-[^125 I]-iodo-propene (15.6 uCi) dissolved in 500 ul of saline. The cells were place vertically on a Nutator rocking apparatus and rocked gently for 20 minutes at room temperature. […] The supernatant, cells, and labeling tube were counted for radioactivity. […]

[5] = system: rat splenic lymphocytes; assay: as above; format: cell-based; conditions: Example 11, trypan blue
Experimental: as §2

[6] = system: sodium urate induced abscess in the stifle joint; assay: Localization of labeled leukocytes in dogs having a sodium urate induced abscess in the stifle joint (aspirate, gamma camera images)
Excerpt: Mixed leukocytes labeled with 4b and ^111 In-oxine labeled mixed leukocytes were compared in dogs having a sodium urate-induced inflammation in the left stifle joint. […]

[7] = system: mononuclear leukocytes; assay: Mononuclear leukocyte labeling yield; format: cell-based; conditions: harvested from 20 mL canine blood via isolymph method
Experimental: Using ^125 I-4b and ^131 I-4b, mononuclear leukocytes harvested from 20 mL canine blood via the isolymph method (sodium diatrizoste and Ficol 400, d=1.077) were labeled in 77% and 85% yields, respectively. Thus, the present compounds can label both lymphocytes and mixed leukocytes in high yields, and that the latter can be used to image sites of focal inflammation.

## CCCCN(CCCC)c1ccc(/C=C/c2cc[n+](C/C=C/[125I])cc2)cc1 [Compound 4a]
[1]; PBLs from dogs and rats and rat splenic lymphocytes
  Lymphocyte labeling (in words): high yields
[1]; Rat spleen, Lympholyte-Rat, 63-300 × 10^6 cells, PBS, 125I, average
  Lymphocyte labeling yield: 71%
[2]; 10% PPP in saline
  Mixed leukocyte labeling yield: 41%
[2]; Diluent C
  Mixed leukocyte labeling yield: 75%
[2]; saline, 2 washes of pellet
  Mixed leukocyte labeling yield: 72%
[2]; saline, no washes of pellet
  Mixed leukocyte labeling yield: 71%
[2]; Diluent C, or saline with or without washes of the cell pellet
  Leukocyte labeling (in words): labeled leukocytes in high yield
[3]
  viability: > 90%

## CCCCCCN(CCCCCC)c1ccc(/C=C/c2cc[n+](C/C=C/[125I])cc2)cc1 [^125 I-4b, 3-[4-[2-(N,N-dihexylamino)phenyl]ethyenyl]pyridino-E-1-[^125 I]-iodo-propene]
[4]
  cytotoxicity: 12%
[5]
  effect of labeling on cell survival: the labeling did not affect cell survival
[6]; Experiment 1
  131I/111In or 125I/111In in aspirate: 1.65
  % aspirate radioactivity cell bound: 98%
[6]; Experiment 1, injected 84 μCi 125I-4b, 500 μCi 111In-oxine, Diluent C
  % inj. dose in abscess aspirate: 0.594%
[6]; Experiment 2
  131I/111In or 125I/111In in aspirate: 6.0
  % aspirate radioactivity cell bound: 96%
[6]; Experiment 2, injected 66 μCi 125I-4b, 312 μCi 111In-oxine
  % inj. dose in abscess aspirate: 0.527%
[6]; sodium urate induced abscess, dog
  localization of labeled leukocytes in induced inflammatory site/abscess, compared with 111In-oxine (111In-labeled) leukocytes: higher degree of localization
[1]; Example 11, 5 million lymphocytes, saline, 15.6 uCi, 20 min, room temperature
  radioactivity bound to the lymphocytes (labeling yield): 77%
[1]; Example 11, of 15.6 uCi added
  radioactivity bound to the lymphocytes: 11.9 uCi
[2]; 1.5 ml saline, pellet not washed
  Labeling Yield: 80%
[2]; 1.5 ml saline, pellet washed with 1×10 mL saline
  Labeling Yield: 84%
[2]; 1.5 ml saline, pellet washed with 2×10 mL saline
  Labeling Yield: 82%
[2]; Table 3 Experiment 1, 4b 250 Ci/mmol, Diluent C after 2 × 10 mL saline washes
  Labeling Yield: 84%
[2]; Table 3 Experiment 2, 4b footnotes a,c (250 / 1000 Ci/mmol)
  Labeling Yield: 88%
[2]; unwashed, 1.5 mL 10% PPP in saline
  Labeling Yield: 83%
[7]
  Mononuclear leukocyte labeling yield: 77%
